Columns and labels:
Format in all cases: cell-based
E. coli BL21 = test: MIC against Gram-negative bacteria: E. coli BL21
Summary of the method: (§1)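 Read-out is absence of bacterial growth, with MIC set at the lowest recombinant protein concentration achieving it. Bacteria, pre-grown in LB to McFarland 0.5 and resuspended, were exposed at 5×10^5 CFU/mL to two-fold diluted human EGF domain proteins in triplicate at 37° C, 175 rpm.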

Proteus mirabilis = test: MIC against Gram-negative bacteria: Proteus mirabilis
Summary of the method: as §1

Proteus vulgaris = test: MIC against Gram-negative bacteria: Proteus vulgaris
Summary of the method: as §1

E. coli DH5α = test: Antibacterial activity: MIC and growth curve against E. coli DH5α in 96-well plate; settings: minimal inhibitory concentration against E. coli DH5α; 96-well plate, 5×10^5 CFU/mL, 37° C., judged after 8 h
Summary of the method: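 Log-phase bacteria (OD600 ~0.5) resuspended in LB at 5×10^5 CFU/mL, exposed to recombinant protein at 50, 25, 12.5 μg/mL final in triplicate, 37 °C shaking at 175 rpm. OD600 read every 30 min; MIC is lowest concentration showing no growth.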

Aeromonas hydrophila = test: MIC against Gram-negative bacteria: Aeromonas hydrophila
Summary of the method: as §1

Serratia marcescens = test: MIC against Gram-negative bacteria: Serratia marcescens
Summary of the method: as §1

Klebsiella pneumonia = test: MIC against Gram-negative bacteria: Klebsiella pneumonia
Summary of the method: as §1

Pseudomonas aeruginosa = test: MIC against Gram-negative bacteria: Pseudomonas aeruginosa
Summary of the method: as §1

Moraxella catarrhalis = test: MIC against Gram-negative bacteria: Moraxella catarrhalis
Summary of the method: as §1

Citrobacter diversus = test: MIC against Gram-negative bacteria: Citrobacter diversus
Summary of the method: as §1

Enterobacter cloacae = test: MIC against Gram-negative bacteria: Enterobacter cloacae
Summary of the method: as §1

[1] = E. coli BL21, 96-well plate, 5×10^5 CFU/mL, 37° C., 10 h
[2] = Proteus mirabilis, 96-well plate, 5×10^5 CFU/mL, 37° C., 10 h
[3] = Proteus vulgaris, 96-well plate, 5×10^5 CFU/mL, 37° C., 10 h
[4] = Aeromonas hydrophila, 96-well plate, 5×10^5 CFU/mL, 37° C., 10 h
[5] = Serratia marcescens, 96-well plate, 5×10^5 CFU/mL, 37° C., 10 h
[6] = Klebsiella pneumonia, 96-well plate, 5×10^5 CFU/mL, 37° C., 10 h
[7] = Pseudomonas aeruginosa, 96-well plate, 5×10^5 CFU/mL, 37° C., 10 h
[8] = Moraxella catarrhalis, 96-well plate, 5×10^5 CFU/mL, 37° C., 10 h
[9] = Citrobacter diversus, 96-well plate, 5×10^5 CFU/mL, 37° C., 10 h
[10] = Enterobacter cloacae, 96-well plate, 5×10^5 CFU/mL, 37° C., 10 h
[11] = E. coli BL21, 10 h cultivation at 37° C., 5×10^5 CFU/mL
[12] = P. mirabilis, 10 h cultivation at 37° C., 5×10^5 CFU/mL
[13] = P. vulgaris, 10 h cultivation at 37° C., 5×10^5 CFU/mL
[14] = A. hydrophila, 10 h cultivation at 37° C., 5×10^5 CFU/mL
[15] = S. marcescens, 10 h cultivation at 37° C., 5×10^5 CFU/mL
[16] = K. pneumonia, 10 h cultivation at 37° C., 5×10^5 CFU/mL
[17] = P. aeruginosa, 10 h cultivation at 37° C., 5×10^5 CFU/mL
[18] = M. catarrhalis, 10 h cultivation at 37° C., 5×10^5 CFU/mL
[19] = C. diversus, 10 h cultivation at 37° C., 5×10^5 CFU/mL
[20] = E. cloacae, 10 h cultivation at 37° C., 5×10^5 CFU/mL
[21] = 96-well plate, 5×10^5 CFU/mL, 37° C., 10 h
[22] = 10 h cultivation at 37° C., 5×10^5 CFU/mL, two-fold serial dilution

PRT1269 (DIDECQTRNGGCDHFCKNIVGSFDCGCKKGFKLLTDEKSCQ; listed as Homo sapiens)
MIC against E. coli BL21 (E. coli BL21; [1]): 50 µg/mL
MIC against P. mirabilis (Proteus mirabilis; [2]): 12.5 µg/mL
MIC against P. vulgaris (Proteus vulgaris; [3]): 50 µg/mL
MIC (E. coli DH5α): 12.5 µg/mL
MIC against A. hydrophila (Aeromonas hydrophila; [4]): 50 µg/mL
MIC against S. marcescens (Serratia marcescens; [5]): 12.5 µg/mL
MIC against K. pneumonia (Klebsiella pneumonia; [6]): 12.5 µg/mL
MIC against P. aeruginosa (Pseudomonas aeruginosa; [7]): 25 µg/mL
MIC against M. catarrhalis (Moraxella catarrhalis; [8]): 50 µg/mL
MIC against C. diversus (Citrobacter diversus; [9]): 12.5 µg/mL
MIC against E. cloacae (Enterobacter cloacae; [10]): 25 µg/mL

PRT1023 (PINYCETGLHNCDIPQRAQCIYTGGSSYTCSCLPGFSGDGQACQ; listed as Homo sapiens)
MIC (E. coli BL21; E. coli BL21, 10 h cultivation at 37° C.): 12.5 µg/mL
MIC (Proteus mirabilis; P. mirabilis, 10 h cultivation at 37° C.): 12.5 µg/mL
MIC (Proteus vulgaris; P. vulgaris, 10 h cultivation at 37° C.): 50 µg/mL
MIC (E. coli DH5α): 25 µg/mL
MIC (Aeromonas hydrophila; A. hydrophila, 10 h cultivation at 37° C.): 12.5 µg/mL
MIC (Serratia marcescens; S. marcescens, 10 h cultivation at 37° C.): 12.5 µg/mL
MIC (Klebsiella pneumonia; K. pneumonia, 10 h cultivation at 37° C.): 12.5 µg/mL
MIC (Pseudomonas aeruginosa; P. aeruginosa, 10 h cultivation at 37° C.): 25 µg/mL
MIC (Moraxella catarrhalis; M. catarrhalis, 10 h cultivation at 37° C.): 12.5 µg/mL
MIC (Citrobacter diversus; C. diversus, 10 h cultivation at 37° C.): 25 µg/mL
MIC (Enterobacter cloacae; E. cloacae, 10 h cultivation at 37° C.): 25 µg/mL

PRT412 (LNDRCRGGGPCKQQCRDTGDEVVCSCFVGYQLLSDGVSCE; listed as Homo sapiens)
MIC (E. coli BL21; [11]): 50 µg/mL
MIC (Proteus mirabilis; [12]): 12.5 µg/mL
MIC (Proteus vulgaris; [13]): 25 µg/mL
MIC (E. coli DH5α): 12.5 µg/mL
MIC (Aeromonas hydrophila; [14]): 25 µg/mL
MIC (Serratia marcescens; [15]): 12.5 µg/mL
MIC (Klebsiella pneumonia; [16]): 25 µg/mL
MIC (Pseudomonas aeruginosa; [17]): 12.5 µg/mL
MIC (Moraxella catarrhalis; [18]): 25 µg/mL
MIC (Citrobacter diversus; [19]): 12.5 µg/mL
MIC (Enterobacter cloacae; [20]): 50 µg/mL

PRT580 (CDCDPMGSQDGGRCDSHDDPALGLVSGQCRCKEHVVGTRCQQCRDGFFGLSISDRLGCRR; listed as Homo sapiens)
MIC against E. coli BL21 (E. coli BL21; [21]): 25 µg/mL
MIC against P. mirabilis (Proteus mirabilis; [21]): 12.5 µg/mL
MIC against P. vulgaris (Proteus vulgaris; [21]): 50 µg/mL
MIC (E. coli DH5α): 12.5 µg/mL
MIC against A. hydrophila (Aeromonas hydrophila; [21]): 25 µg/mL
MIC against S. marcescens (Serratia marcescens; [21]): 12.5 µg/mL
MIC against K. pneumonia (Klebsiella pneumonia; [21]): 25 µg/mL
MIC against P. aeruginosa (Pseudomonas aeruginosa; [21]): 12.5 µg/mL
MIC against M. catarrhalis (Moraxella catarrhalis; [21]): 50 µg/mL
MIC against C. diversus (Citrobacter diversus; [21]): 12.5 µg/mL
MIC against E. cloacae (Enterobacter cloacae; [21]): 12.5 µg/mL

PRT1096 (QLNVCNSNPCLHGGNCEDIYSSYHCSCPLGWSGKHCE; listed as Homo sapiens)
MIC E. coli BL21 (E. coli BL21; [22]): 50 µg/mL
MIC P. mirabilis (Proteus mirabilis; [22]): 12.5 µg/mL
MIC P. vulgaris (Proteus vulgaris; [22]): 12.5 µg/mL
MIC (E. coli DH5α): 12.5 µg/mL
MIC A. hydrophila (Aeromonas hydrophila; [22]): 50 µg/mL
MIC S. marcescens (Serratia marcescens; [22]): 25 µg/mL
MIC K. pneumonia (Klebsiella pneumonia; [22]): 50 µg/mL
MIC P. aeruginosa (Pseudomonas aeruginosa; [22]): 50 µg/mL
MIC M. catarrhalis (Moraxella catarrhalis; [22]): 12.5 µg/mL
MIC C. diversus (Citrobacter diversus; [22]): 50 µg/mL
MIC E. cloacae (Enterobacter cloacae; [22]): 12.5 µg/mL

PRT620 (CPCHNGFSCSVMPETEEVVCNNCPPGVTGARCELCADGYFGDPFGEHGPVRPCQP; listed as Homo sapiens)
MIC E. coli BL21 (E. coli BL21; [21]): 12.5 µg/mL
MIC P. mirabilis (Proteus mirabilis; [21]): 25 µg/mL
MIC P. vulgaris (Proteus vulgaris; [21]): 12.5 µg/mL
MIC (E. coli DH5α): 25 µg/mL
MIC A. hydrophila (Aeromonas hydrophila; [21]): 50 µg/mL
MIC S. marcescens (Serratia marcescens; [21]): 25 µg/mL
MIC K. pneumonia (Klebsiella pneumonia; [21]): 50 µg/mL
MIC P. aeruginosa (Pseudomonas aeruginosa; [21]): 25 µg/mL
MIC M. catarrhalis (Moraxella catarrhalis; [21]): 50 µg/mL
MIC C. diversus (Citrobacter diversus; [21]): 12.5 µg/mL
MIC E. cloacae (Enterobacter cloacae; [21]): 12.5 µg/mL

PRT19 (CSCDPQGAVRDDCEQMTGLCSCKPGVAGPKCGQCPDGRALGPAGCEA; listed as Homo sapiens)
MIC (μg/mL) E. coli BL21 (E. coli BL21; [1]): 12.5 µg/mL
MIC (μg/mL) P. mirabilis (Proteus mirabilis; [2]): 12.5 µg/mL
MIC (μg/mL) P. vulgaris (Proteus vulgaris; [3]): 25 µg/mL
MIC (E. coli DH5α): 25 µg/mL
MIC (μg/mL) A. hydrophila (Aeromonas hydrophila; [4]): 12.5 µg/mL
MIC (μg/mL) S. marcescens (Serratia marcescens; [5]): 50 µg/mL
MIC (μg/mL) K. pneumonia (Klebsiella pneumonia; [6]): 25 µg/mL
MIC (μg/mL) P. aeruginosa (Pseudomonas aeruginosa; [7]): 12.5 µg/mL
MIC (μg/mL) M. catarrhalis (Moraxella catarrhalis; [8]): 50 µg/mL
MIC (μg/mL) C. diversus (Citrobacter diversus; [9]): 25 µg/mL
MIC (μg/mL) E. cloacae (Enterobacter cloacae; [10]): 50 µg/mL

PRT1274 (DVDECAEGNGGCQQSCVNMMGSYECHCREGFFLSDNQ; listed as Homo sapiens)
MIC against E. coli BL21 (E. coli BL21; [1]): 50 µg/mL
MIC against P. mirabilis (Proteus mirabilis; [2]): 25 µg/mL
MIC against P. vulgaris (Proteus vulgaris; [3]): 50 µg/mL
MIC (E. coli DH5α): 12.5 µg/mL
MIC against A. hydrophila (Aeromonas hydrophila; [4]): 50 µg/mL
MIC against S. marcescens (Serratia marcescens; [5]): 25 µg/mL
MIC against K. pneumonia (Klebsiella pneumonia; [6]): 50 µg/mL
MIC against P. aeruginosa (Pseudomonas aeruginosa; [7]): 12.5 µg/mL
MIC against M. catarrhalis (Moraxella catarrhalis; [8]): 12.5 µg/mL
MIC against C. diversus (Citrobacter diversus; [9]): 25 µg/mL
MIC against E. cloacae (Enterobacter cloacae; [10]): 12.5 µg/mL

PRT818 (DCRSACNCTAGAACDAVNGSCLCPAGRRGPRCA; listed as Homo sapiens)
MIC (μg/mL) E. coli BL21 (E. coli BL21; [11]): 50 µg/mL
MIC (μg/mL) P. mirabilis (Proteus mirabilis; [12]): 25 µg/mL
MIC (μg/mL) P. vulgaris (Proteus vulgaris; [13]): 12.5 µg/mL
MIC (E. coli DH5α): 25 µg/mL
MIC (μg/mL) A. hydrophila (Aeromonas hydrophila; [14]): 25 µg/mL
MIC (μg/mL) S. marcescens (Serratia marcescens; [15]): 12.5 µg/mL
MIC (μg/mL) K. pneumonia (Klebsiella pneumonia; [16]): 12.5 µg/mL
MIC (μg/mL) P. aeruginosa (Pseudomonas aeruginosa; [17]): 25 µg/mL
MIC (μg/mL) M. catarrhalis (Moraxella catarrhalis; [18]): 25 µg/mL
MIC (μg/mL) C. diversus (Citrobacter diversus; [19]): 12.5 µg/mL
MIC (μg/mL) E. cloacae (Enterobacter cloacae; [20]): 12.5 µg/mL

PRT1283 (NTDDCVDHACANGGVCVDGVGNYTCQCPLQYEGKACE; listed as Homo sapiens)
MIC against E. coli BL21 (E. coli BL21; [1]): 50 µg/mL
MIC against P. mirabilis (Proteus mirabilis; [2]): 25 µg/mL
MIC against P. vulgaris (Proteus vulgaris; [3]): 12.5 µg/mL
MIC (E. coli DH5α): 12.5 µg/mL
MIC against A. hydrophila (Aeromonas hydrophila; [4]): 12.5 µg/mL
MIC against S. marcescens (Serratia marcescens; [5]): 25 µg/mL
MIC against K. pneumonia (Klebsiella pneumonia; [6]): 50 µg/mL
MIC against P. aeruginosa (Pseudomonas aeruginosa; [7]): 12.5 µg/mL
MIC against M. catarrhalis (Moraxella catarrhalis; [8]): 12.5 µg/mL
MIC against C. diversus (Citrobacter diversus; [9]): 50 µg/mL
MIC against E. cloacae (Enterobacter cloacae; [10]): 12.5 µg/mL

PRT1308 (TSPQCPRKCDPNANCVQDSAGASTCACAAGYSGNGIFCS; listed as Homo sapiens)
MIC against E. coli BL21 (E. coli BL21; [1]): 12.5 µg/mL
MIC against P. mirabilis (Proteus mirabilis; [2]): 25 µg/mL
MIC against P. vulgaris (Proteus vulgaris; [3]): 12.5 µg/mL
MIC (E. coli DH5α): 50 µg/mL
MIC against A. hydrophila (Aeromonas hydrophila; [4]): 12.5 µg/mL
MIC against S. marcescens (Serratia marcescens; [5]): 50 µg/mL
MIC against K. pneumonia (Klebsiella pneumonia; [6]): 12.5 µg/mL
MIC against P. aeruginosa (Pseudomonas aeruginosa; [7]): 50 µg/mL
MIC against M. catarrhalis (Moraxella catarrhalis; [8]): 50 µg/mL
MIC against C. diversus (Citrobacter diversus; [9]): 25 µg/mL
MIC against E. cloacae (Enterobacter cloacae; [10]): 50 µg/mL

From patent publication US9833497B2, “Human originated EGF domain proteins and use of the same” (CHENGDU SOURCEBIO LIMITED-LIABILITY COMPANY, priority 2013, dated 2017)
